Source: US20060069149A1, “Thiadibenzoazulene derivatives for the treatment of inflammatory diseases” (Pliva-Istrazivacki Institut d.o.o., priority 2003, published 2006)

Tested on: TNF-α and IL-1 secretion
Assay: investigated assays, not said which: TNF-α and IL-1 secretion in human PBMC, in mouse peritoneal macrophages, LPS-induced secretion in mice, writhing assay, LPS-induced shock in mice
Settings: active means: PBMC IC50 20 μM or lower; mouse macrophages IC50 10 μM or lower; 30% or more TNF-α inhibition at 10 mg/kg; analgetic activity as acetylsalicylic acid or better; survival 40% or more at 30 mg/kg
Method: The inhibitory action of the present compounds upon TNF-α and IL-1 secretion was determined by the following in vitro and in vivo experiments:
Determination of TNF-α and IL-1 Secretion in Human Peripheral Blood Mononuclear Cells in vitro
Human peripheral blood mononuclear cells (PBMC) were prepared from heparinized whole blood after separating PBMC on Ficoll-Paque™Plus (Amersham-Pharmacia). […] The IL-1 level was determined in an assay under the same conditions and with the same number of cells and the same concentration of the stimulus by ELISA procedure (R&D Systems). The percentage of inhibition of TNF-α or IL-1 production was calculated by the equation: % inhibition=[1−(TS−NC)/(PC−NC)]*100. […]
In order to obtain peritoneal macrophages, Balb/C mouse strain males, age 8 to 12 weeks, were injected i.p. with 300 μg of zymosan (SIGMA) dissolved in a phosphate buffer (PBS) in a total volume of 0.1 ml/mouse. […] The TNF-α level in the cell supernatant was determined by ELISA procedure (R&D Systems, Biosource). IL-1 level was determined in an assay, identical to an assay for TNF-a by ELISA procedure (R&D Systems). The percentage of inhibition of TNF-α or IL-1 production was calculated by the equation: % inhibition=[1−(TS−NC)/(PC−NC)]*100. […]

Compound | activity in the investigated assays
CCOC(=O)c1cc2c(s1)-c1ccc(OCCN3CCCC3)cc1Oc1ccccc1-2 [Example 4, 10-(2-Pyrrolidin-1-yl-ethoxy)-8-oxa-1-thia-dibenzo[e,h]azulene-2-carboxylic acid ethyl ester] | activity in at least two investigated assays
CN(C)CCCOCc1cc2c(s1)-c1ccc(OCCCN(C)C)cc1Oc1ccccc1-2 [Example 14, {3-[2-(3-Dimethylamino-propoxymethyl)-8-oxa-1-thia-dibenzo[e,h]azulene-10-yloxy]-propyl}-dimethyl-amine] | activity in at least two investigated assays
